# In patent publication US20100256152A1, “NOVEL PHARMACEUTICAL COMPOSITION FOR TREATMENT OF SCHIZOPHRENIA” (ASTELLAS PHARMA INC., priority 2009, published 2010):
# Counter-ions that a name gives are not always drawn.
# How the values were obtained:
# BEC1 potassium channel = target: T1, BEC1 potassium channel (Homo sapiens, UniProt Q9ULD8); assay: BEC1 inhibitory activity, 86Rb ion release from BEC1 expressing cells; type: cell-based; settings: BEC1 stably expressing CHO (dhfr-deficient) cells, 100 mM KCl stimulation, 86Rb release; as free form; read-out: IC50 (μM) (Example 1)
# T1 construct: expressed in transfected cells
# T1 sequence (Q9ULD8 1-1083): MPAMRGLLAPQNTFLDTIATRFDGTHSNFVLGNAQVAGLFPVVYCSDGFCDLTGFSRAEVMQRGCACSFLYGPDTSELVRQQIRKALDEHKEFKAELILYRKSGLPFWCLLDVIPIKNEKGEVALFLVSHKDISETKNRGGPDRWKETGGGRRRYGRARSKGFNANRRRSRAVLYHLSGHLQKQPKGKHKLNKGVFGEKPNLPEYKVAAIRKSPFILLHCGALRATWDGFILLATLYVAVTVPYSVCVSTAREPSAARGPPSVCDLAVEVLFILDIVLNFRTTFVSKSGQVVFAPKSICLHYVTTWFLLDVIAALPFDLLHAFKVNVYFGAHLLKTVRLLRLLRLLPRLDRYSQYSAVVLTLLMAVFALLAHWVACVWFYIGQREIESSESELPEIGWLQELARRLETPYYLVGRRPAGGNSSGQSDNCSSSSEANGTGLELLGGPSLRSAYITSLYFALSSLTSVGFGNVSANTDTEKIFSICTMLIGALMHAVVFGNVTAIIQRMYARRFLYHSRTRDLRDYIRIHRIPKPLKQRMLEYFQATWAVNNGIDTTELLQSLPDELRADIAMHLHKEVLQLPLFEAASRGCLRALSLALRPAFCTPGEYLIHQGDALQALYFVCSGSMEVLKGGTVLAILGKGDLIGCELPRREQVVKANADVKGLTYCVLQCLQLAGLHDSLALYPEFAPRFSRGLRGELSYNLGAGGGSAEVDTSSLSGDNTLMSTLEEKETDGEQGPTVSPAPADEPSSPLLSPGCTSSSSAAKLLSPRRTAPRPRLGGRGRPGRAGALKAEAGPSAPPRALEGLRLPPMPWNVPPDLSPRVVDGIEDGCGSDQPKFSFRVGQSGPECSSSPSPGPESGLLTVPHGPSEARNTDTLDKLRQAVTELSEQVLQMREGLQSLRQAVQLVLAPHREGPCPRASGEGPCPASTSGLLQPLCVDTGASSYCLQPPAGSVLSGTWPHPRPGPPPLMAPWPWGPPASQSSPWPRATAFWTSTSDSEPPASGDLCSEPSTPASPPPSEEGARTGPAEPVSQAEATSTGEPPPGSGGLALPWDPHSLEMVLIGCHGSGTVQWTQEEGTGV
# Description: Method for measuring BEC1 inhibitory activity of compound utilizing 86Rb ion release amount as index
# The channel activity of BEC1 was measured according to the method described in U.S. Pat. No. 6,326,168 or U.S. Pat. No. 7,375,222, herein incorporated by reference, utilizing the release of the ions of radioactive isotope 86Rb from BEC1 expressing cells as an index. Specifically, when BEC1 expressing cells which had taken in 86Rb ions were stimulated with 100 mM KCl, the radioactivity released from the same cells was designated as the channel activity of BEC1. 86Rb ions were incorporated into cells by culturing (3 hours, 37° C.) BEC1 stably expressing cells in the presence of 86RbCl (0.5 μCi/ml), and the unincorporated 86Rb ions were removed by washing the cells three times with HEPES buffered physiological saline (pH 7.4, 2.5 mM KCl). The same cells were incubated for 15 minutes at room temperature in the presence of a DMSO solution containing the test compound and HEPES buffered physiological saline, and then were further incubated for 5 minutes at room temperature in the presence of a 100 mM KCl-containing HEPES buffer solution (pH 7.4) containing the same compound. The extracellular fluid was recovered, and then the remaining cells were lysed in 0.1 N NaOH and recovered. The Cherenkov radioactivities of the extracellular fluid and the cell lysate were respectively measured, and the sum was designated as the total radioactivity. The release amount of 86Rb ions was expressed as the percentage of the radioactivity of the extracellular fluid with respect to the total radiation activity. The value obtained in the presence of the compound was designated as a test value, the value obtained in the absence of the compound was designated as a control value, and the value obtained when the cells were not stimulated with 100 mM KCl was designated as a blank value. […] In addition, as for the BEC1 expressing cells, BEC1 stably expressing cells produced according to the method described in U.S. Pat. No. 6,326,168 or U.S. Pat. No. 7,375,222, herein incorporated by reference, using a dihydrofolate reductase (dhfr)-deficient strain of Chinese Hamster ovary cells, were used.
# [1] = system: methamphetamine induced hyperlocomotion; assay: Methamphetamine induced hyperlocomotion model; type: in vivo, male ddY mouse; settings: smallest oral dose giving significantly small activity vs solvent group; mouse; as free form
# Description: Verification of the therapeutic effect on schizophrenia was carried out using a methamphetamine induced hyperlocomotion model. Methamphetamine is a psychostimulant, and is known to cause symptoms that are similar to schizophrenia by increasing the transmission in the dopaminergic neurons. The abnormal behavior produced when methamphetamine is administered to an animal is generally used as a screening method for a therapeutic drug for schizophrenia (Oka et al., 1993, J. Pharmacol. Exp. Ther., 264:158-165, herein incorporated by reference). That is, a male ddY mouse was placed in an activity monitoring apparatus, and after 30 minutes, methamphetamine was administered. After administering methamphetamine, the mouse was immediately returned to the monitoring apparatus, and the activity for one hour from immediately after the return was measured. For the measurement of the activity, a Supermex sensor manufactured by Muromachi Kikai Co., Ltd. was used. […] The solvent used was a 0.5% aqueous solution of methylcellulose. The statistical analysis was carried out between the solvent administered group and the drug administered groups, using Dunnett's test.
# The test compounds (1) to (5) all suppressed methamphetamine induced hyperlocomotion.
# [2] = system: phencyclidine induced prolonged immobility; assay: Phencyclidine induced prolonged immobility model (forced swimming test); type: in vivo, male ddY mouse; settings: mouse; for phencyclidine induced prolonged immobility improving action (in words): oral administration; for Minimum effective dose (mg/kg p.o.) (Example 3): smallest oral dose giving significantly short immobility time vs solvent group, 1 h after administration, as free form
# Description: Verification of the therapeutic effect on schizophrenia was carried out using a phencyclidine induced prolonged immobility model. Phencyclidine is a non-competitive antagonist of the N-methyl-D-aspartate receptor, a type of glutamate receptor, and abuse of this agent causes development of psychotic symptoms indistinguishable from those of schizophrenia. […] Forced swimming test is used as a screening assay for antidepressants, because immobility in this test is thought to reflect some aspect of depression such as lowering of motivation. Negative symptoms of schizophrenia also includes similar aspects, we could evaluate the efficacy of drugs for negative symptoms, such as apathy, using this test. Briefly, a male ddY mouse was gently placed in a cylindrical pool, and activity was measured for 3 min with SCANET (MV20-LAN, MELQUEST). Afterward immobility time was calculated with the SCANET file integrating software. Two days later, Mice were anesthetized with sodium pentobarbital. The Osmotic mini pumps (Alzet model 1002, DURECT Corporation) were subcutaneously implanted to mice. The pump infused saline or phencyclidine 1.2 mg/day/mouse with pumping rate of 0.25 μL/hour. Fourteen days after implantation, a test compound was administered to mice and an hour after administration, each mouse was gently placed in a cylindrical pool, and activity was measured for 3 min. Afterward immobility time was calculated. […] The solvent used was a 0.5% aqueous solution of methylcellulose. The statistical analysis was carried out between the solvent administered group and the drug administered groups, using Dunnett's test.
# [3] = system: phencyclidine induced prolonged finding latency; assay: Water finding task in mice after neonatal treatment with phencyclidine; type: in vivo, male ddY mice; settings: mouse; for phencyclidine induced prolonged finding latency improving action (in words): oral administration; for Minimum effective dose (mg/kg p.o.) (Example 4): smallest oral dose giving significantly short finding latency vs solvent group, as free form
# Description: Verification of the therapeutic effect on schizophrenia was carried out using a water finding task in mice after neonatal treatment with phencyclidine. […] In addition, it has been reported that chronic treatment of PCP prolonged finding latency in the water-finding task (Mouri et al., 2007, Mol. Pharmacol., 180:152-60, herein incorporated by reference). Finding latency in the water-finding task provides a measure of latent learning in animals, which is thought to reflect attention. Attention is one of the most important domain of cognitive impairments in schizophrenia, we could evaluate the efficacy of drugs for cognitive impairments in schizophrenia using this task. Briefly, male ddY mice subcutaneously received PCP at a dose of 15 mg/kg or saline on postnatal day 7, 9 and 11. During the adult 7 weeks old, test compounds were orally administered to animals and 60 minutes later, the animals were placed in one corner of the open field and allowed to freely explore the training apparatus for 3 min. Immediately after the training trial, the animals were returned to their home cage and deprived of water until the test trial the next day. In the test trial, the mice were again placed individually in the test apparatus. The time between entering the alcove and drinking the water was measured. […] The solvent used was a 0.5% aqueous solution of methylcellulose. The statistical analysis was carried out between the solvent administered group and the drug administered groups, using Dunnett's test.
Structure (SMILES),IC50 (BEC1 potassium channel) [µM],Minimum effective dose (mg/kg p.o.) (Example 2) [1],other results
"Fc1ccc(Nc2nc(NCc3ncccn3)nc(Nc3ccc(F)cc3)n2)cc1 (as salt: HCl) [Compound 2a, N,N′-bis(4-fluorophenyl)-N″-(pyrimidin-2-ylmethyl)-1,3,5-triazine-2,4,6-triamine]",–,–,melting point: 183 to 186 °C
"Fc1ccc(Nc2nc(NCc3ncccn3)nc(Nc3ccc(F)cc3)n2)cc1 [Compound 2a, N,N′-bis(4-fluorophenyl)-N″-(pyrimidin-2-ylmethyl)-1,3,5-triazine-2,4,6-triamine]",0.065,0.03,–
"Fc1ccc(Nc2nc(NCc3ncccn3)nc(Nc3ccc(F)cc3)n2)cc1 [Compound 2b, N,N′-bis(4-fluorophenyl)-N″-(pyrimidin-2-ylmethyl)-1,3,5-triazine-2,4,6-triamine]",–,–,phencyclidine induced prolonged immobility improving action (in words) [2]: suppressed phencyclidine induced prolongation of immobility time; Minimum effective dose (mg/kg p.o.) (Example 3) [2]: 0.01 mg/kg p.o.; phencyclidine induced prolonged finding latency improving action (in words) [3]: suppressed phencyclidine induced prolongation of finding latency; Minimum effective dose (mg/kg p.o.) (Example 4) [3]: 0.01 mg/kg p.o.
"COc1ccc(Nc2nc(NCc3ncccn3)nc(Nc3ccc(F)cc3)n2)cc1 [Compound 3, N-(4-fluorophenyl)-N′-(4-methoxyphenyl)-N″-(pyrimidin-2-ylmethyl)-1,3,5-triazine-2,4,6-triamine]",0.092,0.03,–
"Fc1ccc(Nc2nc(NCc3ccncn3)nc(Nc3ccc(F)cc3)n2)cc1 [Compound 4, N,N′-bis(4-fluorophenyl)-N″-(pyrimidin-4-ylmethyl)-1,3,5-triazine-2,4,6-triamine]",0.058,0.01,–
"Cl.Fc1ccc(Nc2nc(NCc3ccnc(F)c3)nc(Nc3ccccc3)n2)cc1 [Compound 5, N-(4-fluorophenyl)-N′-[(2-fluoro-4-pyridyl)methyl]-N″-phenyl-1,3,5-triazine-2,4,6-triamine hydrochloride]",–,1.0,–
"Cc1ccc(Nc2nc(NCc3ccnc(F)c3)nc(Nc3ccc(F)cc3)n2)cc1 [Compound 7, N-(4-fluorophenyl)-N′-[(2-fluoro-4-pyridyl)methyl]-N″-(4-methylphenyl)-1,3,5-triazine-2,4,6-triamine hydrochloride]",0.24,–,–

# Continued, in another order:
IC50 (BEC1 potassium channel) [µM],Structure (SMILES),Minimum effective dose (mg/kg p.o.) (Example 2) [1],other results
0.077,"Fc1ccc(Nc2nc(NCc3ncccn3)nc(Nc3ccccc3)n2)cc1 [Compound 1, N-(4-fluorophenyl)-N′-phenyl-N″-(pyrimidin-2-ylmethyl)-1,3,5-triazine-2,4,6-triamine]",0.1,phencyclidine induced prolonged immobility improving action (in words) [2]: suppressed phencyclidine induced prolongation of immobility time; Minimum effective dose (mg/kg p.o.) (Example 3) [2]: 0.03 mg/kg p.o.; phencyclidine induced prolonged finding latency improving action (in words) [3]: suppressed phencyclidine induced prolongation of finding latency; Minimum effective dose (mg/kg p.o.) (Example 4) [3]: 0.03 mg/kg p.o.
0.17,"COc1ccc(Nc2nc(NCc3ccnc(F)c3)nc(Nc3ccc(F)cc3)n2)cc1 [Compound 8, N-(4-fluorophenyl)-N′-[(2-fluoro-4-pyridyl)methyl]-N″-(4-methoxyphenyl)-1,3,5-triazine-2,4,6-triamine hydrochloride]",–,–
0.25,"COc1cccc(Nc2nc(NCc3ccnc(F)c3)nc(Nc3ccc(F)cc3)n2)c1 [Compound 10, N-(4-fluorophenyl)-N′-[(2-fluoro-4-pyridyl)methyl]-N″-(3-methoxyphenyl)-1,3,5-triazine-2,4,6-triamine hydrochloride]",–,–
